Patent publication US6593319B1, “Fusidic acid derivatives” (Leo Pharmaceutical Products, Ltd. A/S, priority 2001, dated 2003)
Values after ≈ are worked out from the molar mass of the structure shown.

Legend:
[1] = tested on: S. aureus Leoid CJ234(R); assay: MIC, agar diffusion method (European Pharmacopoeia 3rd Ed.); type: cell-based; conditions: MRSA and Rifampicin resistant
Method: (§1) The antibacterial activity of some of these compounds relative to fusidic acid appears from Table 2 showing MIC values for compounds of the invention. The method used is recommended by the European Pharmacopoeia 3rd Ed. (1997) for testing the potency of antibiotics. It is an agar diffusion method where the same volume of the tested solution is added to cavities in agar. The inhibition zones are a function of the concentration of the fusidic acid analogue used. All assays are run with fusidic acid (1) as the reference substance. The results in Table 2 differ from those of Table 1 due to the different experimental methods used.

[2] = tested on: Strep. faecium Leo id. E119(P); assay: as above; type: cell-based; conditions: Penicillin resistant
Method: as §1

[3] = tested on: S. aureus Leo id. CJ232; assay: as above; type: cell-based; conditions: S. aureus Leo id. CJ232, MRSA
Method: as §1

[4] = tested on: S. aureus ATCC2977; assay: as above; type: cell-based
Method: as §1

[5] = tested on: S. aureus ATCC6538P; assay: as above; type: cell-based
Method: as §1

[6] = tested on: Strep. sp. Gr.B Leo id. EF6; assay: as above; type: cell-based
Method: as §1

[7] = tested on: Strep. epidermis A. ATCC12228; assay: as above; type: cell-based
Method: as §1

[8] = tested on: Strep. faecalis ATCC10541; assay: as above; type: cell-based
Method: as §1

[9] = tested on: Staphylococcus/291-2; assay: MIC, microtitter plates, liquid medium containing broth; type: cell-based; conditions: Staphylococcus/291-2, coagulase negative, FusS, read-out: MIC values (concentrations in μg/ml required for 90% inhibition)
Method: (§2) In vitro investigations have evidenced high potency of compounds of the invention against several bacteria including staphylococci, streptococci, corynebacteriae and mycobacteriae. […] The biological tests are conducted on microtitter plates using liquid medium containing broth.

[10] = tested on: M. tuberculosis/R 498; assay: as above; type: cell-based; conditions: Mycobacterium tuberculosis, read-out: MIC values (concentrations in μg/ml required for 90% inhibition)
Method: as §2

[11] = tested on: Streptococcus - gr.C/68; assay: as above; type: cell-based; conditions: read-out: MIC values (concentrations in μg/ml required for 90% inhibition)
Method: as §2

[12] = tested on: Staphylococcus/379-2; assay: as above; type: cell-based; conditions: Staphylococcus/379-2, coagulase negative, FusR, read-out: MIC values (concentrations in μg/ml required for 90% inhibition)
Method: as §2

[13] = tested on: Streptococcus - gr.G/59; assay: as above; type: cell-based; conditions: read-out: MIC values (concentrations in μg/ml required for 90% inhibition)
Method: as §2

[14] = tested on: N. gonorrhoea/C1; assay: as above; type: cell-based; conditions: read-out: MIC values (concentrations in μg/ml required for 90% inhibition)
Method: as §2

[15] = tested on: S. aureus/54 USA-br; assay: as above; type: cell-based; conditions: Staphylococcus aureus, FusR, MSSA, read-out: MIC values (concentrations in μg/ml required for 90% inhibition)
Method: as §2

[16] = tested on: P. acnes/1060; assay: as above; type: cell-based; conditions: Cutibacterium acnes, read-out: MIC values (concentrations in μg/ml required for 90% inhibition)
Method: as §2

[17] = tested on: E. faecalis/V583 P. Cour.; assay: as above; type: cell-based; conditions: Enterococcus faecalis, VanR, read-out: MIC values (concentrations in μg/ml required for 90% inhibition)
Method: as §2

[18] = tested on: N. meningitidis/K1; assay: as above; type: cell-based; conditions: Neisseria meningitidis, read-out: MIC values (concentrations in μg/ml required for 90% inhibition)
Method: as §2

[19] = tested on: Streptococcus - gr.B/61; assay: as above; type: cell-based; conditions: read-out: MIC values (concentrations in μg/ml required for 90% inhibition)
Method: as §2

[20] = tested on: S. aureus/22 DK; assay: as above; type: cell-based; conditions: Staphylococcus aureus, FusS, MSSA, read-out: MIC values (concentrations in μg/ml required for 90% inhibition)
Method: as §2

[21] = tested on: C. diphteria/62001; assay: as above; type: cell-based; conditions: read-out: MIC values (concentrations in μg/ml required for 90% inhibition)
Method: as §2

[22] = tested on: S. aureus/ATCC 29213; assay: as above; type: cell-based; conditions: Staphylococcus aureus, ATCC 29213 / MSSA, FusS, read-out: MIC values (concentrations in μg/ml required for 90% inhibition)
Method: as §2

[23] = tested on: S. aureus/1 Aus-pe; assay: as above; type: cell-based; conditions: Staphylococcus aureus, FusS, MRSA, read-out: MIC values (concentrations in μg/ml required for 90% inhibition)
Method: as §2

[24] = tested on: Streptococcus - gr.A/67011; assay: as above; type: cell-based; conditions: read-out: MIC values (concentrations in μg/ml required for 90% inhibition)
Method: as §2

[25] = Stability in ethanol solution (retained activity); type: physicochemical; conditions: solution in ethanol stored at 0° C. for 1 month
[26] = relative to fusidic acid; reduction of C-24/C-25 and C-17/C-20 double bonds; cited from earlier work
[27] = Staphylococcus aureus, read-out: MIC values (concentrations in μg/ml required for 90% inhibition)
[28] = read-out: MIC values (concentrations in μg/ml required for 90% inhibition)

Compound: CCO[C@H]1C[C@@]2(C)[C@@H](C[C@@H](O)[C@H]3[C@@]4(C)CC[C@@H](O)[C@@H](C)[C@@H]4CC[C@@]32C)[C@H]1[C@H](CCC=C(C)C)C(=O)O [Compound 123, 16-Deacetoxy-16β-ethoxy-17(S),20(S)-dihydrofusidic Acid]
- MIC values (concentrations in μg/ml required for 90% inhibition) [1]: 0.007 µg/mL
- MIC values (concentrations in μg/ml required for 90% inhibition) [2]: 16 µg/mL
- MIC values (concentrations in μg/ml required for 90% inhibition) [3]: 0.005 µg/mL
- MIC values (concentrations in μg/ml required for 90% inhibition) [4]: 0.02 µg/mL
- MIC values (concentrations in μg/ml required for 90% inhibition) [5]: 0.02 µg/mL
- MIC values (concentrations in μg/ml required for 90% inhibition) [6]: 16 µg/mL
- MIC values (concentrations in μg/ml required for 90% inhibition) [7]: 0.5 µg/mL
- MIC values (concentrations in μg/ml required for 90% inhibition) [8]: 16 µg/mL

Compound: COCO[C@H]1C[C@@]2(C)[C@@H](C[C@@H](O)[C@H]3[C@@]4(C)CC[C@@H](O)[C@@H](C)[C@@H]4CC[C@@]32C)[C@H]1[C@H](CCC=C(C)C)C(=O)O [Compound 128, 16-Deacetoxy-16β-methoxymethoxy-17(S),20(S)-dihydrofusidic acid]
- MIC values (concentrations in μg/ml required for 90% inhibition) [1]: >64 µg/mL
- MIC values (concentrations in μg/ml required for 90% inhibition) [2]: 16 µg/mL
- MIC values (concentrations in μg/ml required for 90% inhibition) [3]: >64 µg/mL
- MIC values (concentrations in μg/ml required for 90% inhibition) [4]: 0.19 µg/mL
- MIC values (concentrations in μg/ml required for 90% inhibition) [5]: 0.26 µg/mL
- MIC values (concentrations in μg/ml required for 90% inhibition) [6]: 16 µg/mL
- MIC values (concentrations in μg/ml required for 90% inhibition) [7]: 0.5 µg/mL
- MIC values (concentrations in μg/ml required for 90% inhibition) [8]: 16 µg/mL

Compound: CC(=O)O[C@H]1C[C@@]2(C)[C@@H](C[C@@H](O)[C@H]3[C@@]4(C)CC[C@@H](O)[C@@H](C)[C@@H]4CC[C@@]32C)/C1=C(\CCC=C(C)C)C(=O)O [Fusidic acid (1), Fusidic acid]
- MIC [9]: 1 µg/mL (≈ 1.94 µM)
- MIC [10]: > 16 µg/mL
- MIC [11]: 2 µg/mL (≈ 3.87 µM)
- MIC [12]: 64 µg/mL (≈ 124 µM)
- MIC [13]: 4 µg/mL (≈ 7.74 µM)
- MIC [14]: 1 µg/mL (≈ 1.94 µM)
- MIC [15]: 8 µg/mL (≈ 15.5 µM)
- MIC [16]: 0.125 µg/mL (≈ 0.242 µM)
- MIC [17]: 16 µg/mL (≈ 31 µM)
- MIC [18]: 0.25 µg/mL (≈ 0.484 µM)
- MIC [19]: 32 µg/mL (≈ 61.9 µM)
- MIC [20]: 0.5 µg/mL (≈ 0.968 µM)
- MIC [21]: 0.063 µg/mL (≈ 0.122 µM)
- MIC [22]: 1 µg/mL (≈ 1.94 µM)
- MIC [23]: 1 µg/mL (≈ 1.94 µM)
- MIC [24]: 16 µg/mL (≈ 31 µM)
- retained initial activity [25]: about 70%
- MIC [1, 27]: 0.01 µg/mL (≈ 0.0194 µM)
- MIC ([2]; Enterococcus faecium, read-out: MIC values (concentrations in μg/ml required for 90% inhibition)): 2.7 µg/mL (≈ 5.23 µM)
- MIC [3, 27]: 0.012 µg/mL (≈ 0.0232 µM)
- MIC [4, 27]: 0.01 µg/mL (≈ 0.0194 µM)
- MIC [5, 27]: 0.013 µg/mL (≈ 0.0252 µM)
- MIC [6, 28]: 4.9 µg/mL (≈ 9.48 µM)
- MIC [7, 28]: 0.01 µg/mL (≈ 0.0194 µM)
- MIC ([8]; Enterococcus faecalis, read-out: MIC values (concentrations in μg/ml required for 90% inhibition)): 4.9 µg/mL (≈ 9.48 µM)

Compound: tetrahydrofusidic acid
- antibacterial activity [26]: almost complete loss of activity
